Like-named read-outs stand apart in the source and are kept apart here. Marks after values point to notes of the source that are not given here.
How the values were obtained:
[1] = Solubility in water and physiological serum; type: physicochemical
Source text: La solubilité dans l'eau et dans le sérum physiologique est supérieure à 20 g/l ce qui est donc largement suffisant pour la réalisation de formes injectables.

[2] = Acute toxicity i.p. in mice (DLo, maximal non-lethal dose); type: in vivo, souris mâles Swiss ou CD2F1
Procedure: La toxicité de SPM a été déterminée sur des souris mâles Swiss ou CD2F1. La léthalité, quand elle existe, apparaît systématiquement aux jours 5 et 6 après l'adminstration par voie i.p. L'enregistrement de cette léthalité en fonction de la dose injectée permet de déduire la DLo qui est la dose maximale non léthale. La même valeur de DLo a été obtenue chez les Swiss et les CD2F1 : elle a été trouvée égale à 1 500 mg/kg. C'est là un résultat remarquable.

LEUCEMIE P388 = assay: Antitumour activity on P388 leukemia implanted i.p. in mice; type: in vivo, souris CD2F1
Source text: (§1) Les tests d'activité antitumorale ont été conduits au sein du Screening and Pharmacology Group de l'E.O.R.T.C., implanté à l'Institut Mario Negri de Milan.
(§2) Ces essais ont été conduits soit en mono-injection à différentes doses au jour J+1 suivant la greffe de la tumeur, soit en poly-injections chroniques Q1D, soit en protocoles Q4D.
(§3) L'activité antitumorale est mesurée par le rapport T/C %, T (en jours) étant le durée moyenne de vie des souris traitées, C (en jours) étant la durée moyenne de vie des souris témoins.
(§4) L'effet thérapeutique est considéré comme significatif quant T/C % est supérieur ou égal à 125.

[3] = tested on: LEUCEMIE P388 INTRACEREBRALE; assay: Antitumour activity on intracerebral P388 leukemia in mice; type: in vivo, souris CD2F1; conditions: Tableau 2, inoculation i.c.
Source text: as §1, §2, §3, §4

[4] = tested on: CARCINOME DU POUMON DE LEWIS; assay: Antitumour activity on Lewis lung carcinoma implanted i.m. in mice; type: in vivo, souris C57Bl/6
Source text: as §1, §2

[5] = tested on: CARCINOME MAMMAIRE LIGNEE 16; assay: Antitumour activity on mammary carcinoma line 16 implanted i.m. in mice; type: in vivo, souris 3CH
Source text: as §1, §2, §3, §4

[6] = 200 mg/kg i.p. x j 1,5,9, sacrifice jour 25
[7] = 200 mg/kg i.p. j 1,5,9, jour 26
[8] = 300 mg/kg i.p. j 1,5,9, jour 26

For `C(CCN1CCCNP12=NP(N1CC1)(N1CC1)=NP(N1CC1)(N1CC1)=N2)CN1CCCNP12=NP(N1CC1)(N1CC1)=NP(N1CC1)(N1CC1)=N2` (centres unmarked) [SPM], the solubility ([1]; serum, sérum physiologique, read-out: solubilité dans le sérum physiologique) was over 20 mg/mL, the solubility ([1]; water, eau, read-out: solubilité dans l'eau) was over 20 mg/mL and the “DLo (dose maximale non léthale)” value ([2]; souris mâles CD2F1, i.p.) was 1 500 mg/kg. The “DLo (dose maximale non léthale)” value ([2]; souris mâles Swiss, i.p.) was 1 500 mg/kg, the “T/C (%)” value (LEUCEMIE P388; Tableau 2, inoculation i.p., 100 mg/kg i.p. x 9 (j 1 à 9)) was 245% and the “T/C (%)” value (LEUCEMIE P388; Tableau 2, inoculation i.p., 150 mg/kg i.p. x 9 (j 1 à 9)) was 135%. For the same molecule, the “T/C (%)” value (LEUCEMIE P388; Tableau 2, inoculation i.p., 200 mg/kg i.p. x 9 (j 1 à 9)) was 110%, the “T/C (%)” value (LEUCEMIE P388; Tableau 9, 25 mg/kg i.p. x j 1-9) was 166% and the “T/C (%)” value (LEUCEMIE P388; Tableau 9, 50 mg/kg i.p. x j 1,5,9) was 161%. The “T/C (%)” value (LEUCEMIE P388; Tableau 9, 50 mg/kg i.p. x j 1-9) was 176%, the “T/C (%)” value (LEUCEMIE P388; Tableau 9, 100 mg/kg i.p. x j 1) was 152% and the “T/C (%)” value (LEUCEMIE P388; Tableau 9, 100 mg/kg i.p. x j 1,5,9) was 190%. The “T/C (%)” value (LEUCEMIE P388; Tableau 9, 100 mg/kg i.p. x j 1-9 (9Q1D)) was 260%, the “T/C (%)” value (LEUCEMIE P388; Tableau 9, 150 mg/kg i.p. x j 1,5,9) was 219% and the “T/C (%)” value (LEUCEMIE P388; Tableau 9, 150 mg/kg i.p. x j 1-9) was 195%. The “T/C (%)” value (LEUCEMIE P388; Tableau 9, 200 mg/kg i.p. x j 1) was 166%, the “T/C (%)” value (LEUCEMIE P388; Tableau 9, 250 mg/kg i.p. x j 1,5,9 (Q4D)) was 285% and the “T/C (%)” value (LEUCEMIE P388; Tableau 9, 300 mg/kg i.p. x j 1) was 166%. For the same molecule, the “T/C (%)” value (LEUCEMIE P388; Tableau 9, 400 mg/kg i.p. x j 1) was 200%, the “T/C (%)” value ([3]; 100 mg/kg i.p. x 9 (j 1 à 9)) was 141% and the “T/C (%)” value ([3]; 150 mg/kg i.p. x 9 (j 1 à 9)) was 123%. The “T/C (%)” value ([3]; 200 mg/kg i.p. x 9 (j 1 à 9)) was 129%, the “Volume de la tumeur (d^2.D/2)cm^3 ± S.E.” value ([4]; 200 mg/kg i.p. x j 1,5,9, jour 10) was 0,53±0,08 cm^3 and the “Volume de la tumeur (d^2.D/2)cm^3 ± S.E.” value ([4]; 200 mg/kg i.p. x j 1,5,9, jour 13) was 1,64±0,18 cm^3. The “Volume de la tumeur (d^2.D/2)cm^3 ± S.E.” value ([4]; 200 mg/kg i.p. x j 1,5,9, jour 17) was 3,49±0,15* cm^3, the “Volume de la tumeur (d^2.D/2)cm^3 ± S.E.” value ([4]; 200 mg/kg i.p. x j 1,5,9, jour 20) was 4,35±0,26* cm^3 and the “Volume de la tumeur (d^2.D/2)cm^3 ± S.E.” value ([4]; 200 mg/kg i.p. x j 1,5,9, jour 24) was 6,08±0,31* cm^3. The “Métastases Nombre moyen (N ± S.E.)” value [4, 6] was 14 ± 3,4, the “Métastases Poids moyen (mg ± S.E.)” value [4, 6] was 127,3 ± 43,1 mg and the “Poids moyen de la tumeur (g ± S.E.)” value [4, 6] was 7,40 ± 0,33 g. The “activité sur le carcinome du poumon de Lewis (result in words)” value ([4]; souris C57B1/6) was “intéressante activité”, the “toxicity of the regimen (result in words)” value ([5]; 100 mg/kg i.p. j 1-9) was “TOXIQUE” and the “T/C (%)” value ([5]; 200 mg/kg i.p. j 1,5,9) was 105%. The “Volume moyen de la tumeur (cm^3 ± S.E.)” value ([5]; 200 mg/kg i.p. j 1,5,9, jour 15) was 0,37±0,05* cm^3, the “Volume moyen de la tumeur (cm^3 ± S.E.)” value ([5]; 200 mg/kg i.p. j 1,5,9, jour 19) was 1,70±0,24* cm^3 and the “Volume moyen de la tumeur (cm^3 ± S.E.)” value ([5]; 200 mg/kg i.p. j 1,5,9, jour 22) was 2,43±0,31* cm^3. The “Volume moyen de la tumeur (cm^3 ± S.E.)” value [5, 7] was 3,71±0,46 cm^3, the “nombre d'animaux vivants/total” value [5, 7] was 9/10 and the “toxicity of the regimen (result in words)” value ([5]; 200 mg/kg i.p. j 1-9) was “TOXIQUE”. For the same molecule, the “T/C (%)” value ([5]; 300 mg/kg i.p. j 1,5,9) was 94%, the “Volume moyen de la tumeur (cm^3 ± S.E.)” value ([5]; 300 mg/kg i.p. j 1,5,9, jour 19) was 0,24±0,14* cm^3 and the “Volume moyen de la tumeur (cm^3 ± S.E.)” value ([5]; 300 mg/kg i.p. j 1,5,9, jour 22) was 0,45±0,28* cm^3. The “Volume moyen de la tumeur (cm^3 ± S.E.)” value [5, 8] was 2,24±0,31 cm^3 and the “nombre d'animaux vivants/total” value [5, 8] was 3/10.

— patent EP0240392A1, “Compounds of the cyclophosphazene type, process for their preparation and pharmaceutical preparation containing them” (CENTRE NATIONAL DE LA RECHERCHE SCIENTIFIQUE (CNRS), priority 1986, dated 1987)
